Results on 4 molecules are retold here after article PMC3914206.

Holding throughout (assay type): binding
Test [1] has as its target T1, panel of 442 kinases (Homo sapiens, UniProt O15264).
T1 construct: purchased KINOMEscan
T1 sequence (O15264 1-365): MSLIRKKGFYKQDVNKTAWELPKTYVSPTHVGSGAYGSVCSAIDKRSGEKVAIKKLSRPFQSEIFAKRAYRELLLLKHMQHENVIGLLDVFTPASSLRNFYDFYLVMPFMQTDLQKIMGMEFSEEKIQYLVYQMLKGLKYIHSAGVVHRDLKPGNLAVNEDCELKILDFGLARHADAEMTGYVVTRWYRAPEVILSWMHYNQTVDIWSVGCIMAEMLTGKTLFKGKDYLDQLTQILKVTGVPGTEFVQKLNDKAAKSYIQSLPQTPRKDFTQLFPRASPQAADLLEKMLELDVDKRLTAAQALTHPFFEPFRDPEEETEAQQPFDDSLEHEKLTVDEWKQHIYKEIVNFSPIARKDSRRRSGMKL
The settings on record: Compound Concentration 10 µM. The text has this: (§1) We assessed the selectivity of members of this scaffold using the KINOMEscan methodology across a near comprehensive panel of 442 kinases [[18,27]].

Test [2] has as its target T2, panel of 442 kinases (Homo sapiens, UniProt O75116).
T2 construct: purchased KINOMEscan
The settings on record: Compound Concentration 10 µM.
Excerpt: as §1

Test [3] deals with T3, panel of 442 kinases (Homo sapiens, UniProt Q9BYT3).
T3 construct: purchased KINOMEscan
The settings on record: kinase STK33; compound concentration 10 µM.
Excerpt: as §1

T3 sequence (Q9BYT3 whole entry): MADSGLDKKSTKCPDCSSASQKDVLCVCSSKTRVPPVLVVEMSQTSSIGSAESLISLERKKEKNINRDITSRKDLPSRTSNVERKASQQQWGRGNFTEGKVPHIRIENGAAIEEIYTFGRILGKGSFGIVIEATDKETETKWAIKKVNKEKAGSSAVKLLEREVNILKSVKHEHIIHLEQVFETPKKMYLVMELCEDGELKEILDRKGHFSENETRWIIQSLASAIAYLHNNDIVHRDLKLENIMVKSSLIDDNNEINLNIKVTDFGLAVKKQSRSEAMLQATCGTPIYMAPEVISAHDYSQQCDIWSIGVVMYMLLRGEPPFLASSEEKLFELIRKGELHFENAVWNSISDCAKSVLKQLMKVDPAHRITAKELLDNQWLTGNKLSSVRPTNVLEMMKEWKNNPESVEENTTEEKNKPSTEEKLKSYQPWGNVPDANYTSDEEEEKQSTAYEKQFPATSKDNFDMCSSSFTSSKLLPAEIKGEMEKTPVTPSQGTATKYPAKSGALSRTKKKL
T2 sequence (O75116 whole entry): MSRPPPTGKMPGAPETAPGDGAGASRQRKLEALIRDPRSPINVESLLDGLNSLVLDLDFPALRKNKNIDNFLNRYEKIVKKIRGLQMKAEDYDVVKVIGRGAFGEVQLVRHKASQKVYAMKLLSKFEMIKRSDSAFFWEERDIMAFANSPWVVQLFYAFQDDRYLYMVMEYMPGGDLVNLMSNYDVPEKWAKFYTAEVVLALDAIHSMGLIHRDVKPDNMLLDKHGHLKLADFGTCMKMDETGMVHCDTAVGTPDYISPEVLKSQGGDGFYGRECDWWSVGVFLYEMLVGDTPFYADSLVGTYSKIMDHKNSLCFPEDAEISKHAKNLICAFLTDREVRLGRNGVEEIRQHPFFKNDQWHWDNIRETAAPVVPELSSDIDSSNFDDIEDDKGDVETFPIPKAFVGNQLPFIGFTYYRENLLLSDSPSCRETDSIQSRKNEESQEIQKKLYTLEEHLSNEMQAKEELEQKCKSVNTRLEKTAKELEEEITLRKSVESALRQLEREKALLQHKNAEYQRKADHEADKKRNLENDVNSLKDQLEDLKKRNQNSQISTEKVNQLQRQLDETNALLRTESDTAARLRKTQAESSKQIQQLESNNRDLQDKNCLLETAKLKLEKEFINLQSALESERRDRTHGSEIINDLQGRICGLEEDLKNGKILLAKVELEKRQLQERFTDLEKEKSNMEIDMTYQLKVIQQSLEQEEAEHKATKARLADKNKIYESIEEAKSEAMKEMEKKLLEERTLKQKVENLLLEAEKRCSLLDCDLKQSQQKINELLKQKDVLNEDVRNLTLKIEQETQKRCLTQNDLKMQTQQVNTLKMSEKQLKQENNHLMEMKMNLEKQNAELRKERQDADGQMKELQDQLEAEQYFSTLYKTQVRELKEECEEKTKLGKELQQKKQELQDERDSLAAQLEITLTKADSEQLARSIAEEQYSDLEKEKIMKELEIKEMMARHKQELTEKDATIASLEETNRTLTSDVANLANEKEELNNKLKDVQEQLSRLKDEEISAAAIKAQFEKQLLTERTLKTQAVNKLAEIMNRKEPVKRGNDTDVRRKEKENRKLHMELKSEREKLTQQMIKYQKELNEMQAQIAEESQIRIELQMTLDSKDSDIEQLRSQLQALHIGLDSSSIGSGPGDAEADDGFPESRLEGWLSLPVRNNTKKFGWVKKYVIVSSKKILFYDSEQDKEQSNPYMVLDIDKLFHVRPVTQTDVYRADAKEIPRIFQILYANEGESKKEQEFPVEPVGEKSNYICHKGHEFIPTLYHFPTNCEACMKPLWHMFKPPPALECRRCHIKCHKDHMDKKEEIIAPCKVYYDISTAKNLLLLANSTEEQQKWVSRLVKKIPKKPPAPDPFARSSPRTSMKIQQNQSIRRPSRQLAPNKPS

Consider `COc1cc(C(=O)N2CCC(N3CCN(C)CC3)CC2)ccc1Nc1ncc2c(n1)N(C1CCCC1)c1ccccc1C(=O)N2C` [Compound 25, 11-cyclopentyl-2-((2-methoxy-4-(4-(4-methylpiperazin-1-yl)piperidine-1-carbonyl)phenyl)amino)-5-methyl-5H-benzo[e]pyrimido[5,4-b][1,4]diazepin-6(11H)-one], for which, in test [1], the “KINOMEscan: p38-delta” value is listed as 100. Besides, the “KINOMEscan: ROCK2” value in test [2] was determined as 79. For the same molecule, in test [3], the “% Ctrl, STK33” value was found to be 81 % Ctrl.
For the molecule `COc1cc(C(=O)N2CCC(N3CCN(C)CC3)CC2)ccc1Nc1ncc2c(n1)N1CCc3cccc(c31)C(=O)N2C` [Compound 24], in test [2], the “KINOMEscan: ROCK2” value came out at 65.
On to `COc1cc(C(=O)N2CCC(N3CCN(C)CC3)CC2)ccc1Nc1ncc2c(n1)N(C)c1ccccc1C(=O)N2C` [15 (LRRK2-IN-1)], for which the “KINOMEscan: p38-delta” value in test [1] is listed as 72. For the same molecule, the “KINOMEscan: ROCK2” value in test [2] is listed as 87. Besides, in test [3], the “% Ctrl, STK33” value turned out to be 10 % Ctrl.
Taken in the same sequence, the figures for `CCOc1cc(C(=O)N2CCC(N3CCN(C)CC3)CC2)ccc1Nc1ncc2c(n1)N(C1CCCC1)c1ccccc1C(=O)N2C` [Compound 26] were 100, 83 and 100 % Ctrl.
